{"source": "the NIST ThermoML archive (doi:10.1021/je7001539)", "settings": "Liquid", "note": "Numbers after ± are expanded uncertainties.", "data": [{"compound": "FC(F)C(F)(F)F", "note": "[pentafluoroethane]", "values": [{"measurement": "vapor or sublimation pressure", "setting": "243.15 K", "result": "228.5 ± 6.1", "unit": "kPa"}, {"measurement": "vapor or sublimation pressure", "setting": "253.15 K", "result": "337.9 ± 8.5", "unit": "kPa"}, {"measurement": "vapor or sublimation pressure", "setting": "263.15 K", "result": "483.1 ± 12", "unit": "kPa"}, {"measurement": "vapor or sublimation pressure", "setting": "272.15 K", "result": "650.1 ± 16", "unit": "kPa"}, {"measurement": "vapor or sublimation pressure", "setting": "283.15 K", "result": "908.8 ± 23", "unit": "kPa"}, {"measurement": "vapor or sublimation pressure", "setting": "293.15 K", "result": "1204.5 ± 30", "unit": "kPa"}, {"measurement": "vapor or sublimation pressure", "setting": "303.15 K", "result": "1566.8 ± 39", "unit": "kPa"}, {"measurement": "vapor or sublimation pressure", "setting": "313.15 K", "result": "2005.6 ± 50", "unit": "kPa"}, {"measurement": "vapor or sublimation pressure", "setting": "323.15 K", "result": "2533.2 ± 63", "unit": "kPa"}, {"measurement": "vapor or sublimation pressure", "setting": "333.15 K", "result": "3167.4 ± 79", "unit": "kPa"}]}, {"compound": "CC(C)C", "note": "[2-methylpropane]", "values": [{"measurement": "vapor or sublimation pressure", "setting": "243.15 K", "result": "46.2 ± 3.2", "unit": "kPa"}, {"measurement": "vapor or sublimation pressure", "setting": "253.15 K", "result": "72 ± 3.5", "unit": "kPa"}, {"measurement": "vapor or sublimation pressure", "setting": "263.15 K", "result": "107.9 ± 3.9", "unit": "kPa"}, {"measurement": "vapor or sublimation pressure", "setting": "272.15 K", "result": "150.9 ± 4.6", "unit": "kPa"}, {"measurement": "vapor or sublimation pressure", "setting": "283.15 K", "result": "220.1 ± 5.9", "unit": "kPa"}, {"measurement": "vapor or sublimation pressure", "setting": "293.15 K", "result": "301.8 ± 7.6", "unit": "kPa"}, {"measurement": "vapor or sublimation pressure", "setting": "303.15 K", "result": "404.3 ± 10", "unit": "kPa"}, {"measurement": "vapor or sublimation pressure", "setting": "313.15 K", "result": "530.8 ± 13", "unit": "kPa"}, {"measurement": "vapor or sublimation pressure", "setting": "323.15 K", "result": "684.3 ± 17", "unit": "kPa"}, {"measurement": "vapor or sublimation pressure", "setting": "333.15 K", "result": "868.3 ± 22", "unit": "kPa"}]}]}
